Laboratory results as given in PubChem BioAssay (NCI).
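Results reflect a 48-hour exposure of cells in 96-well plates to compound at five concentrations. TGI denotes the concentration required for complete inhibition of growth.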

Legend:
Experiment in all cases: growth of human tumour cells (NCI), 48 h
LXFL 529 NSCLC = test system: LXFL 529 NSCLC
KM20L2 colon = test system: KM20L2 colon
SNB-78 CNS = test system: SNB-78 CNS
M19-MEL melanoma = test system: M19-MEL melanoma
DMS 114 small cell lung = test system: DMS 114 small cell lung
DMS 273 small cell lung = test system: DMS 273 small cell lung
HOP-18 NSCLC = test system: HOP-18 NSCLC
XF 498 CNS = test system: XF 498 CNS
RXF-631 renal = test system: RXF-631 renal

SMILES	TGI (LXFL 529 NSCLC)	TGI (KM20L2 colon)	TGI (SNB-78 CNS)	TGI (M19-MEL melanoma)	TGI (DMS 114 small cell lung)	TGI (DMS 273 small cell lung)	TGI (HOP-18 NSCLC)	TGI (XF 498 CNS)	TGI (RXF-631 renal)
Cc1cc(=O)[nH]c(NNC(C#N)c2ccco2)n1 (centres undefined)	> 100 µM	> 100 µM	> 100 µM	> 100 µM	> 100 µM	> 100 µM	> 100 µM	–	–
COC(=O)N/N=C(/Cc1occc(=O)c1O)C(=O)Nc1ccc([N+](=O)[O-])cc1[N+](=O)[O-]	> 100 µM	> 100 µM	> 100 µM	> 100 µM	> 100 µM	> 100 µM	> 100 µM	> 100 µM	–
O=C1NC2C(CCO)CC=C[C@H]2c2cc3c(cc21)OCO3 (some centres undefined)	> 100 µM	> 100 µM	> 100 µM	> 100 µM	> 100 µM	> 100 µM	–	–	–
COC1=CC(=O)C2C(C1=O)C(c1ccc(OC)c(OC)c1)[C@H]2C (some centres undefined)	33.3 µM	> 100 µM	> 100 µM	42.1 µM	42.3 µM	60.3 µM	35.1 µM	29.9 µM	32.7 µM
Nc1ncnc2c1ncn2C1CC(OC2CCCCO2)C(CO)O1 (centres undefined)	> 100 µM	> 100 µM	> 100 µM	> 100 µM	> 100 µM	> 100 µM	> 100 µM	> 100 µM	–
CC/C(SC)=[N+](\C)[O-]	> 100 µM	> 100 µM	> 100 µM	> 100 µM	> 54.2 µM	–	> 100 µM	> 100 µM	> 100 µM
CN1N=C2c3ccccc3CC[C@H]2C1c1cccc(O)c1 (some centres undefined)	> 100 µM	> 100 µM	–	> 100 µM	> 100 µM	> 100 µM	–	> 100 µM	–
C/C(=N/NC(N)=S)C(CN(C)C)C(C1=C(O)c2ccccc2OC1)c1ccccc1 (centres undefined)	> 100 µM	> 100 µM	> 100 µM	> 100 µM	> 100 µM	> 100 µM	> 100 µM	> 100 µM	–
COc1ccc2c(c1)OC(c1ccccc1O)CC2=O (centres undefined)	71.5 µM	> 100 µM	84.8 µM	–	–	–	> 100 µM	> 100 µM	–
COc1ccc(C2S/C(=C\c3ccccc3)C(=O)N2NC(=O)Cc2ccccc2)cc1 (centres undefined)	> 100 µM	–	–	> 100 µM	–	> 100 µM	> 100 µM	–	–
O=C(N/N=C(\c1nc2ccc(Cl)cc2[nH]c1=O)C(O)c1ccccc1Cl)c1ccncc1 (centres undefined)	> 100 µM	> 100 µM	–	> 100 µM	> 100 µM	> 100 µM	> 100 µM	–	> 100 µM
CC(C)C1COC(c2ccc3ccccc3c2-c2c(O[Si](C)(C)C(C)(C)C)ccc3ccccc23)=N1 (centres undefined)	28.7 µM	37.2 µM	21.4 µM	33.7 µM	30.9 µM	42.8 µM	–	28.9 µM	61.3 µM
